According to patent US9593153B2, “Modified apelin polypeptides” (INSERM (INSTITUT NATIONAL DE LA SANTE ET DE LA RECHERCHE …, priority 2012, dated 2017):
“Also recorded” adds a separate entry of the source.

Experiments:
[1] = tested on: proApelin processing; experiment: proApelin processing in transfected cells with PC inhibitors (immunoblot); assay type: cell-based, human; settings: cell transfection experiments, coexpression with apelin
Excerpt: FIG. 2: Human apelin cDNA encodes a protein of 77 amino acid residues. Newly synthesized apelin is a preproprotein that is proteolytically processed in order to generate mature 36, 17 and 13 amino acid forms. We cloned human apelin into pIRES2-eGFP vector adding a V5 tag in C-terminus of the apelin sequence. […] To identify the PCs involved in apelin processing, apelin and each of the PCs were transiently co-expressed in LoVo cells, a furin-deficient cell line. Supernatants were collected 24 hours after transfection and analyzed for proapelin processing by immunoblotting using a V5 antibody. As illustrated in (a), analyses of media derived from LoVo cells cotransfected with vector encoding proapelin and control vector show a band with an apparent molecular mass of 8-9 kDa, corresponding to the intact apelin precursor. […] FIG. 3: […]

[2] = Cutaneous reverse passive Arthus reactions assay; assay type: in vivo
[3] = tested on: human platelets; experiment: Intracellular Ca2+ mobilization in thrombin-stimulated human platelets (Fura-2); assay type: cell-based; settings: for thrombin-induced Ca2+ mobilisation: human platelets preincubated with peptide alone; for effect on the apelin inhibitory effect on thrombin-induced Ca2+ mobilisation: human platelets, peptide together with apelin
Method: FIG. 6: APJ antagonist […]) and unprocessed double mutant apelin-36 (apelin-DM) confirm the role of APJ in the inhibition of platelet function by apelin. Intracellular Ca^2+ mobilization ([Ca^2+]i) in human platelets was monitored in real-time using a fluorescence spectrophotometer. Human platelets, loaded with Fura-2-AM were preincubated 3 minutes with PBS, as control (black bar); […] (100 nM; white bar); apelin (10 nM; grey bar) or […] (100 nM) plus apelin (10 nM) (dashed bar) before stimulation by thrombin (100 mU/mL). […] Human platelets were loaded with Fura-2 by incubation with 2 μM Fura-2-AM for 45 minutes at 37° C. Cells were then collected by centrifugation at 350 g for 15 min and resuspended in HEPES-buffered saline (145 mM NaCl, 10 mM HEPES, 10 mM D-glucose, 5 mM KCl, 1 mM MgSO4, pH 7.4), and supplemented with 0.1% (w/v) BSA. Fluorescence was recorded from 2 mL aliquots of magnetically stirred cell suspensions at 37° C. using a fluorescence spectrophotometer (Varian Ltd., Madrid, Spain) with excitation wavelengths of 340 and 380 nm and emission at 505 nm. Changes in [Ca^2+]i were monitored using the Fura-2 340/380 fluorescence ratio and calibrated according to the method of Grynkiewicz et al.^19. Ca^2+ release by thrombin was estimated using the integral of the rise in [Ca^2+]i for 2.5 minutes after its addition, taking a sample every second, and was expressed in nM as previously described^20.

[4] = tested on: wild-type mice; experiment: Tail bleeding time after intravenous injection; assay type: in vivo, mouse; settings: for tail bleeding time: peptide alone; for effect on the apelin-induced increase in bleeding time: peptide together with apelin
Excerpt: FIG. 7: APJ antagonist […]) and unprocessed double mutant apelin-36 (apelin-DM) confirm the role of APJ in the inhibition of platelet function by apelin. Tail bleeding time in wild-type mice receiving an intravenous injection of PBS, as control (●); […] (500 nmol/kg; ▪); apelin (50 nmol/kg; ◯) or […] (500 nmol/kg) plus apelin (50 nmol/kg) (□). FIG. 8: APJ antagonist […]) and unprocessed double mutant apelin-36 (apelin-DM) confirm the role of APJ in the inhibition of platelet function by apelin. Tail bleeding time in wild-type mice receiving an intravenous injection of PBS, as control (●); apelin (50 nmol/kg; ◯); apelin-36 (500 nmol/kg; Δ); apelin-DM (500 nmol/kg; ▪), apelin-36 plus apelin (▾) or apelin-DM plus apelin (□). Complete blood counts and haematocrit were determined with an automatic cell counter, using the standard parameters for mice. Bleeding time assays were performed on overnight fasted animals, after injection of PBS, apelin-13, apelin-36, apelin-DM or […] into the retro-orbital plexus, by cutting off the tip of the tail (3 mm from the tip) and immediately immersing it in saline at 37° C. We then recorded the time taken for the bleeding to stop.

[5] = tested on: human platelets; experiment: Thrombin-induced aggregation of washed human platelets; assay type: cell-based; settings: for thrombin-induced platelet aggregation: human platelets preincubated with peptide alone; for effect on the apelin inhibitory effect on thrombin-induced aggregation: human platelets, peptide together with apelin
Method: FIG. 5: APJ antagonist […]) and unprocessed double mutant apelin-36 (apelin-DM) confirm the role of APJ in the inhibition of platelet function by apelin. Thrombin-induced aggregation of human platelets preincubated with PBS, as control (black bar); […] (100 nM; white bar); apelin (10 nM; grey bar) or […] (100 nM) plus apelin (10 nM) (dashed bar). Venous blood was collected from healthy donors on 10% (v/v) trisodium citrate (3.8%). Written informed consent was obtained from all the donors. Platelet-rich plasma (PRP) was obtained by centrifugation (120 g; 15 minutes; 20° C.) and platelets were isolated by differential centrifugation as previously described^15. The platelet pellet was resuspended in modified Tyrode-HEPES buffer without CaCl2 (137 mM NaCl, 2 mM KCl, 0.3 mM NaH2PO4, 5.5 mM glucose, 5 mM Hepes, 12 mM NaHCO3, pH 7.3). Platelet aggregation was monitored by measuring light transmission through the stirred suspension of washed platelets (3×10^8/mL) at 37° C. in presence of 1 mM CaCl2 using a Chronolog aggregometer (Chrono-log Corporation, USA). When mentioned, platelets were first incubated with apelin-13, apelin-36, apelin-DM or […] for 3 minutes at 37° C. Platelet aggregation was triggered by adding collagen, thrombin, or ADP. Representative traces for aggregation were obtained from at least three independent experiments. Results are expressed as the percent change in light transmission with respect to the blank (buffer without platelets), set at 100%.

[6] = tested on: HUVEC; experiment: HUVEC proliferation induced by VEGF (Cell Titer96 assay); assay type: cell-based, human
Method: FIG. 9: HUVEC proliferation and motility. HUVEC were serum deprived overnight and then treated for 24 h with or without VEGF in the presence of apelin wild-type (10 ng/ml) and/or apelin mut-36 (10 ng/ml). Cell proliferation was assessed using Cell Titer96 non-radioactive cell proliferation assay.

[7] = tested on: HUVEC; experiment: Endothelial cell migration (motility) induced by VEGF; assay type: cell-based, human
[8] = tested on: chick chorioallantoic membrane; experiment: Chick chorioallantoic membrane (CAM) assay; assay type: in vivo
[9] = tested on: mouse aortic ring; experiment: Mouse aortic ring assay

## ppPC5: PC inhibitor, prosegment proPC5
[1]
  processing of proApelin: inhibited

## apelin
[2]
  tissue inflammation: increased tissue inflammation

## Apelin-36: proApelin (Apelin-36), 36 amino acid cleavage product of preproapelin (LVQPRGSRNGPGPWQGGRRKFRRQRPRLSHKGPMPF; listed as Homo sapiens)
[3]
  thrombin-induced Ca2+ mobilisation: inhibited
[4]
  tail bleeding time: significant increase in bleeding time
[5]
  thrombin-induced platelet aggregation: inhibited

## ppFurin: Furin inhibitor, prosegment proFurin
[1]
  processing of proApelin: inhibited

## alpha1-PDX: Furin inhibitor serpin alpha1-antitrypsin, furin-motif variant of α1-antitrypsin
[1]
  processing of proApelin: inhibited

## LVQPRGSRNGPGPWQGGSSKFSSQRPRLSHKGPMPF (Synthetic inhibitor of apelin) [Apelin-DM, unprocessed mutant of apelin; cleavage sites of proapelin (18RRKFRR) replaced by 18SSKFSS]
[6]
  endothelial cell proliferation induced by VEGF: inhibits
[2]
  tissue inflammation: inhibited these processes
[7]
  endothelial cell migration induced by VEGF: inhibits
[8]
  formation of new vessels (neo-vascularisation): prevents the neo-vascularisation
[3]
  effect on the apelin inhibitory effect on thrombin-induced Ca2+ mobilisation: abolished the apelin inhibitory effect
[9]
  formation of new vessels (neo-vascularisation): prevents the neo-vascularisation
[4]
  effect on the apelin-induced increase in bleeding time: inhibited
[5]
  effect on the apelin inhibitory effect on thrombin-induced aggregation: abolished the apelin inhibitory effect

## F13A: APJ receptor antagonist apelin-13 (F13A)
[3]
  thrombin-induced Ca2+ mobilisation: no effects
  effect on the apelin inhibitory effect on thrombin-induced Ca2+ mobilisation: prevents the inhibitory effects of apelin alone; also recorded: abolished the apelin inhibitory effect
[4]
  tail bleeding time: no effects
  effect on the apelin-induced increase in bleeding time: prevents the inhibitory effects of apelin alone; also recorded: inhibited
[5]
  thrombin-induced platelet aggregation: no effects
  effect on the apelin inhibitory effect on thrombin-induced aggregation: prevents the inhibitory effects of apelin alone; also recorded: abolished the apelin inhibitory effect

## apelin-13
[8]
  formation of new vessels (neo-vascularisation): induced the formation of new vessels
[3]
  thrombin-induced Ca2+ mobilisation: inhibited
[9]
  formation of new vessels (neo-vascularisation): induced the formation of new vessels
[4]
  tail bleeding time: significant increase in bleeding time
[5]
  thrombin-induced platelet aggregation: inhibited
